Test results taken from patent EP4763837A1, “PHOTOCHROMIC COMPOUND, CURABLE COMPOSITION, OPTICAL ARTICLE, LENS, AND EYEGLASSES” (TOKUYAMA CORPORATION, priority 2023, dated 2025).
Several values for one entry are separate records, joined by “and”; a condition that tells them apart may be missing. Identical values can stand only once.

Experiments:
[1] = Photochromic property of binder sheet (photochromic layer made by binder method); format: physicochemical; conditions: for Residual ratio: A96/A0 x 100 after 96 hours accelerated degradation, xenon weather meter X25; for Color developing density at 23°C: absorbance difference after 240 seconds irradiation at the maximum absorption wavelength of the same line
Experimental: (§1) The resulting photochromic laminates were evaluated by the below-mentioned methods. • (1) Photochromic property • [1] Maximum absorption wavelength (λmax): This is the maximum absorption wavelength after color development determined by a spectrophotometer manufactured by Otsuka Electronics Co., Ltd. (instantaneous multichannel photo detector MCPD3000) and was used as an index of a color tone upon color development. • [2] Color developing density at 23°C (A23): This is a difference between an absorbance {ε(240)} after irradiation with light at 23°C for 240 seconds and an absorbance ε(0) when not irradiated with light at the maximum absorption wavelength and was used as an index of a color developing density. The higher this value is, the better a photochromic property is. • [3] Color fading half-life at 23°C [τ1/2 (sec).)]: This is a period of time taken by an absorbance at the maximum absorption wavelength of a sample to decrease to 1/2 of {ε(240)-ε(0)} when irradiation is stopped after irradiation with light at 23°C for 240 seconds, and was used as an index of a color fading rate. The shorter this period of time is, the faster the color fading rate is. • [4] Residual ratio (A96/A0 x 100): The resulting photochromic plastic lens was subjected to accelerated degradation for 96 hours using a xenon weather meter X25 manufactured by Suga Test Instruments Co., Ltd. Color developing densities were then evaluated before and after a test, and a color developing density before the test (A0) and a color developing density after the test (A96) were measured. A ratio (A96/A0) was determined as a residual ratio and was used as an index of color development durability. The higher the residual ratio is, the more durable the color development is.
A binder sheet was produced as follows. The binder sheet was made by laminating a first optical sheet, a first adhesive layer, a photochromic layer, a second adhesive layer, and a second optical sheet in this order. A polycarbonate sheet with a thickness of 400 µm was used as the first optical sheet and the second optical sheet.
A 2 L four-necked flask equipped with a stirring blade, a condense tube, a thermometer, and a nitrogen gas inlet tube was charged with 315 parts by mass of polycarbonate diol with a number average molecular weight of 1000, 100 parts by mass of isophorone diisocyanate, and 72 parts by mass of toluene and reacted under a nitrogen atmosphere at 100°C for 7 hours. Thus, a urethane prepolymer with a terminal isocyanate group was synthesized. After the reaction of the above-mentioned urethane prepolymer was completed, the resulting reaction liquid was cooled to about 0°C and dissolved in 205 parts by mass of tertiary-butyl alcohol and 382 parts by mass of diethyl ketone, and then a temperature of the resulting liquid was kept at 0°C. Next, a mixed solution of 21.3 parts by mass of bis-(4-aminocyclohexyl)methane serving as a chain extender and 20 parts by mass of diethyl ketone was added dropwise thereto within 30 minutes and reacted at 0°C for 1 hour. Then, 8.1 parts by mass of 1,2,2,6,6-pentamethyl-4-aminopiperidine was added dropwise thereto and reacted at 0°C for 1 hour to obtain a solution of a terminal non-reactive urethane urea resin in diethylketone.
One hundred parts by mass of the resulting solution of a terminal non-reactive urethane urea resin, 6.3 parts by mass of Example 1 (a photochromic compound represented by Formula (1-7), an isomer mixture of 4,4'-methylenebis(cyclohexylisocyanate) (polyisocyanate compound)), 0.4 parts by mass of ethylenebis(oxyethylene) bis[3-(5-tert-butyl-4-hydroxy-m-tolyl) propionate] serving as an antioxidant, and 0.06 parts by mass of L-7001 manufactured by DuPont Toray Specialty Materials K.K. serving as a surfactant were added and stirred and mixed at room temperature to obtain a composition for forming a photochromic layer. […]

[2] = Photochromic property of photochromic cured product made by kneading method; format: physicochemical; conditions: for Residual ratio: A96/A0 x 100 after 96 hours accelerated degradation, xenon weather meter X25; for Color developing density at 23°C: absorbance difference after 240 seconds irradiation at the maximum absorption wavelength of the same line
Experimental: as §1
First, the photochromic compound obtained in Example 1, an additive, and a polymerizable compound were mixed to obtain a curable composition. The polymerizable compound was a combination of the following polymerizable monomers: • · 1,3-Bis(isocyanatomethyl)cyclohexane: 36.7 parts by mass • · Pentaerythritol tetrakis(3-mercaptopropionate): 39.4 parts by mass • · Polyoxyethylene polyoxypropylene lauryl ether (WONDERSURF 140 manufactured by AOKI OIL INDUSTRIAL Co., Ltd.): 17.4 parts by mass • · 1-Decanethiol: 2.8 parts by mass • · RX-1 prepared by the method described in Patent Document 14: 3.8 parts by mass
Note that, in the curable composition, the photochromic compound was added in an amount of 0.106 mmol taking a total amount of the polymerizable monomers as 100 g.
The following additives were used: • · Dimethyltin dichloride: 0.05 parts by mass • · Irganox 245: 0.1 parts by mass • · 2-Ethylhexyl […]: 0.6 parts by mass
After the thus-prepared curable composition was thoroughly defoamed, it was poured into a glass mold with a gap of 1 mm and polymerized by casting polymerization. […] After the polymerization, the resulting cured product was removed from the glass mold to obtain a photochromic cured product with a thickness of 1 mm. The resulting photochromic cured product was evaluated in the same manner as for Example 23.
Photochromic cured products were produced using the photochromic compounds shown in Table 4 in the same manner as in Example 50.

| SMILES | Residual ratio [1] | Color developing density at 23°C [1] | Residual ratio [2] | Color developing density at 23°C [2] |
| --- | --- | --- | --- | --- |
| CCCCC1(CCC)c2ccccc2-c2c1c1c(c3cc(OC)c(N4CCOCC4)cc23)OC(c2ccc(OC)cc2)(c2ccc(OC)cc2)C=C1 (stereo not drawn) [Formula (6-2)] | 75% and 72% | – | – | – |
| CCC1(C)c2ccccc2-c2c1c1c(c3cc(OC)c(N(C)c4ccccc4)cc23)OC(c2ccc(OC)cc2)(c2ccc(OC)cc2)C=C1 (stereo not drawn) [Formula (9-1)] | 93% | 1.19 - | 79% | 1.20 - |
| CCCC1(CC)c2ccccc2-c2c1c1c(c3cc(OC)c(N4CCOCC4)cc23)OC(c2ccc(OC)cc2)(c2ccc(OC)cc2)C=C1 (stereo not drawn) [Formula (14-1)] | 75% | – | 63% and 64% | – |
| CCCCCCC1(CC)c2ccccc2-c2c1c1c(c3cc(OC)c(N4CCOCC4)cc23)OC(c2ccc(OC)cc2)(c2ccc(OC)cc2)C=C1 (stereo not drawn) [Formula (18-1)] | 71% and 74% | – | 60% and 61% | – |
| CCCCCCCCCCCC1(C)c2ccccc2-c2c1c1c(c3cc(OC)c(N4CCOCC4)cc23)OC(c2ccc(OC)cc2)(c2ccc(OC)cc2)C=C1 (stereo not drawn) [Formula (19-1)] | 62% and 66% | – | 52% and 55% | – |
| COc1ccc(C2(c3ccc(OC)cc3)C=Cc3c4c(c5cc(N6CCOCC6)c(OC)cc5c3O2)-c2ccccc2C4(C)C)cc1 [Formula (A), reference compound] | 63% and 65% | – | 54% and 56% | 1.68 - and 0.85 - |
| CCC1(OC)c2ccccc2-c2c1c1c(c3cc(OC)c(N4CCOCC4)cc23)OC(c2ccc(OC)cc2)(c2ccc(OC)cc2)C=C1 (stereo not drawn) [Formula (B), reference compound] | 50% and 51% | 1.32 - and 0.71 - | 40% and 42% | 1.32 - and 0.69 - |
